According to US8389555B2, “Medicaments” (Motac Neuroscience Limited, priority 2007, dated 2013):
Counter-ions that a name gives are not always drawn.

Tests used:
[1] = target: T1, human dopamine D3 receptors (Homo sapiens, UniProt P35462); assay: Dopamine D3 receptor binding assay ([3H]spiperone, CHO cell membranes); conditions: for Ki: human D3 receptors in CHO cells, 0.2 nM [3H]spiperone, mean ± SEM, read-out: Affinity Ki (D3); for Selectivity Ki(D2)/Ki(D3): ratio of Ki(D2) to Ki(D3)
T1 construct: expressed in transfected cells
T1 sequence (P35462 whole entry): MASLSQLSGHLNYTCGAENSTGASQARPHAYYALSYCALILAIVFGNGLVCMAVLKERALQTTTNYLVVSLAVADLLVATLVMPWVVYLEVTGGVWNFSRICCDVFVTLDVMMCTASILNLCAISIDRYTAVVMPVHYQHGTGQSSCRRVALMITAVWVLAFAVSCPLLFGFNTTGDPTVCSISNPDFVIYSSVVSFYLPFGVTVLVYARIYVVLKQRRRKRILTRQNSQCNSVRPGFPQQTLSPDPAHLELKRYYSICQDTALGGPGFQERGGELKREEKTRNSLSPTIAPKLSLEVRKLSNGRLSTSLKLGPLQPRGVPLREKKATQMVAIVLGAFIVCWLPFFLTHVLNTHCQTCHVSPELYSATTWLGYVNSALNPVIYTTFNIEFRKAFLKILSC
Procedure: (§1) Compounds synthesized in Examples A, B, C and D were assayed to test their affinity for dopamine D3 and D2 receptors.
(§2) METHODS: Dopamine D2S and D3 Receptor Binding Assays
Human D3 receptors stably expressed in CHO cells were used as described by Sokoloff et al. (Sokoloff, P. et al., Eur. J. Pharmacol. 1992, 225, 331-337). The cell line was cultured in Dulbecco's modified Eagle's medium supplemented with 2 mM glutamine, and 10% dialyzed fetal bovine serum, and were grown in an atmosphere of 5% CO2 at 37° C. (Gibco™).
(§3) Human D2S- and D3 receptors expressing cell lines were grown to confluence. The medium was removed, and the cells were washed with 10 ml PBS buffer (140 mM NaCl, 3 mM KCl, 1.5 mM KH2PO4, 8 mM Na2HPO4, pH 7.4) at 4° C. After removing the wash buffer, the cells were scraped from the flasks into 15 ml of ice-cold media, and centrifuged at 3,000 rpm for 10 minutes at 4° C. After centrifugation the medium was removed and the […] resuspended in ice-cold Tris-HCl buffer containing 5 mM MgCl2, pH 7.4 and disrupted with a Polytron and centrifuged at 20,000 rpm, for 30 minutes at 4° C. The pellet was resuspended by sonication in ice-cold Tris-HCl buffer (containing 5 mM MgCl2, pH 7.4), membrane aliquots were stored at −70° C. Determination of membrane protein was carried out by the method of Bradford (Bradford, M. M. Anal Biochem 1976, 72, 248-54).
(§4) Cell membranes containing human D2S and D3 receptors from CHO cells were thawed, rehomogenized with sonication at 4° C. in Tris-HCl, pH 7.4 containing 120 mM NaCl, 5 mM KCl, 2 mM CaCl2 and 1 mM MgCl2 (incubation buffer), and incubated with 0.2 nM [^3H]spiperone (106 Ci·mmol^−1, Amersham Biosciences, Freiburg, Germany), and drug diluted in incubation buffer. Non-specific binding was determined in the presence of 10 μM BP 897 ((Wermuth, C. G. et al. in Chem. Abstr. (Eur. Pat. 0779284, 1997)). Incubations were run at 25° C. for 120 min, and terminated by rapid filtration through PerkinElmer GF/B glass fibre filters (PerkinElmer Life Sciences, Rodgau, Germany) coated in 0.3% polyethylenimine (Sigma-Aldrich, Taufkirchen, Germany) using an Inotech cell harvester (Inotech AG, Dottikon, Switzerland). Unbound radioligand was removed with four washes of 1 ml of ice-cold 50 mM Tris-HCl buffer, pH 7.4, containing 120 mM NaCl. The filters were soaked in 9 ml Beta plate scint scintillator and counted using a PerkinElmer MicroBeta®Trilux scintillation counter (PerkinElmer Life Sciences). Competition binding data were analyzed by the software GraphPad Prism™ (2000, version 3.02, San Diego, Calif., USA), using non-linear least squares fit. For detailed screening the compounds have been tested at seven concentrations in triplicate carrying out three to five separate binding experiments for human dopamine D2S and for human dopamine D3 receptors and expressed as mean±standard error of the mean (SEM). Ki values were calculated from the IC50 values according to Cheng-Prusoff equation (Cheng, Y. C., Prusoff, W. H. Biochem. Pharmacol. 1973, 22, 3099-3108.).

[2] = target: T2, recombinant human D2(short) dopamine receptor (Homo sapiens, UniProt P14416); assay: Dopamine D2S receptor binding assay ([3H]spiperone, CHO cell membranes); conditions: human D2S receptors in CHO cells, 0.2 nM [3H]spiperone, mean ± SEM; read-out: Affinity Ki (D2)
T2 construct: expressed in transfected cells; host or cells: CHO-D2S cells (per Hayes et al. 1992)
T2 sequence (P14416 1-414 isoform P14416-2): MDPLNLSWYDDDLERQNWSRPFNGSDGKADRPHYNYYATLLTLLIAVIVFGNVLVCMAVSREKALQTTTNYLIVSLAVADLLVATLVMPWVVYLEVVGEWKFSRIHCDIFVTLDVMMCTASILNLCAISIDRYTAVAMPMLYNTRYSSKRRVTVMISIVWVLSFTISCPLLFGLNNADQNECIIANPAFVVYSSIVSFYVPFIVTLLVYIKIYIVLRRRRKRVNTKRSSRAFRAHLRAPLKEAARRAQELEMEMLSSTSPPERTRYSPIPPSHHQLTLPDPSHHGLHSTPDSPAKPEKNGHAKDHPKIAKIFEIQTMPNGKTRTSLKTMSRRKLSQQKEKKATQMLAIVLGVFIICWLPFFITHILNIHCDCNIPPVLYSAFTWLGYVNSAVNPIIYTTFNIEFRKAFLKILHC
Procedure: as §1, §2
CHO-D2S cells, expressing the recombinant human D2(short) dopamine receptor gene, (Hayes, G. et al., J. Mol. Endocrinol. 1992, 6, 920-926) were grown in Dulbecco's modified Eagle's medium/nutrient mixture F12 1:1 mixture supplemented with 2 mM glutamine, 10% fetal bovine serum, and 10 μl·ml^−1 penicillin/streptomycin in an atmosphere of 5% CO2 at 37° C. (Gibco™, Karlsruhe, Germany).
as §3, §4

[3] = system: 6-OHDA-lesioned rat model of Parkinson's disease; assay: Rotational behaviour in 6-OHDA-lesioned rat model of Parkinson's disease; format: in vivo; conditions: for onset of action / short or long acting in vivo: in vivo model; for onset and persistence of activity: following oral or intra-peritoneal application, FIGS. 12, 16, 17
Procedure: Preparation of 6-OHDA-Lesioned Rat Model of Parkinson's Disease
Male Sprague-Dawley rats weighing 290-350 g were used. The rats were housed in a temperature-controlled room under a 12 hour light/dark cycle with free access to food and water. Thirty minutes prior to surgery, the animals were given the monoamine oxidase-B inhibitor pargyline (5 mg/kg i.p.;) and the noradrenaline uptake inhibitor desipramine (25 mg/kg i.p.). The rats were then placed under general anaesthesia (Flourothane) and immobilised in stereotaxic frame. Following reflection of cranial skin and periostium, a small bur-hole was made in the skull on the right side and a small puncture was made in the dura mater. Each animal then received a unilateral injection of 2.5 μl of the neurotoxin 6-hydroxydopamine hydrobromide (6-OHDA HBr; 5 mg/ml in sterile water with 0.1% ascorbic acid; i.e. 12.5 μg 6-OHDA per rat) into the right medial forebrain bundle at stereotaxic co-ordinates −2.8 mm from bregma, 2 mm lateral to the midline, and 9 mm below the skull. The 6-OHDA injection was made over a 5 minute period using a 5 μl Hamilton syringe. The rats were allowed to recover for 3 weeks following the lesion. Animals then received 0.05 mg/kg s.c. apomorphine to assess the extent of lesion. Animals displaying clear rotational behaviour directed contralateral to the lesioned side were selected for further studies.
Only lesioned animals were used in the study (as determined by apomorphine rotation).
Animals were administered a dose of the test compound at 1 mg/kg or 3 mg/kg (i.p.) and rotational behaviour was assessed for up to 4 hours following drug administration using automated rotometers. Alternatively, animals were administered a dose of the test compound at 10 mg/kg (p.o.) and rotational behaviour was assessed for up to 8 hours following drug administration using automated rotometers.
Each compound was administered to at least 5 rats.
Total net rotational activity. This parameter is calculated as the total number of 180° rotations (net contralateral) over the duration of the experiment.
Data were analysed independently for each novel compound with appropriate parametric statistics. All tests were carried out in Graphpad Prism Version 3.

[4] = patients treated with pramipexole; cited from earlier work

| Ki [1] [nM] | Selectivity Ki(D2)/Ki(D3) [1] | Ki [2] [nM] | melting point [°C] | SMILES | onset of action [3] | short or long acting in vivo [3] | onset and persistence of activity [3] | action at increasing doses ([3]; i.p. at 1 and 3 mg/kg) | patients who may develop oedema [4] |
| --- | --- | --- | --- | --- | --- | --- | --- | --- | --- |
| 0.55 ± 0.19 | 542 | 299 ± 38 | – | CCCN(CCCCC(=O)Nc1ccc2ccccc2c1)C1CCc2ncsc2C1 (centres unmarked) [Compound 9, 5-[Propyl-(4,5,6,7-tetrahydro-benzothiazol-6-yl)-amino]-pentanoic acid naphthalen-2-ylamide] | fast acting | short acting | – | – | – |
| 3.95 ± 1.17 | 394 | 1560 ± 464 | – | CCCN(CCCCNC(=O)N1CCc2ccccc2C1)C1CCc2ncsc2C1 (centres unmarked) [Compound 24, 3,4-Dihydro-1H-isoquinoline-2-carboxylic acid {4-[propyl-(4,5,6,7-tetrahydro-benzothiazol-6-yl)-amino]-butyl}-amide] | – | short acting | – | – | – |
| 2.67 ± 1.32 | 2850 | 7610 ± 1810 | – | CCCN(CCCCNC(=O)N1CCc2cc(OC)c(OC)cc2C1)C1CCc2ncsc2C1 (centres unmarked) [Compound 25, 6,7-Dimethoxy-3,4-dihydro-1H-isoquinoline-2-carboxylic acid {4-[propyl-(4,5,6,7-tetrahydro-benzothiazol-6-yl)-amino]-butyl}-amide] | – | short acting | – | – | – |
| 22.7 ± 13.5 | 19 | 468 ± 13.5 | – | CCN(CCN(CC)C1CCc2ncsc2C1)C1CCc2ncsc2C1 (centres unmarked) [Compound 33, N,N′-Diethyl-N,N′-bis-(4,5,6,7-tetrahydro-benzothiazol-6-yl)-ethane-1,2-diamine] | – | – | rapid onset of activity and also have a sustained effect | – | – |
| 4.5 ± 0.7 | 29 | 132 ± 40 | – | CCCN(CCN1CCN(c2ccccc2OC)CC1)C1CCc2ncsc2C1 (centres unmarked) [Compound 34, {2-[4-(2-Methoxy-phenyl)-piperazin-1-yl]-ethyl}-propyl-(4,5,6,7-tetrahydro-benzothiazol-6-yl)-amine] | fast acting | – | rapid onset of activity and also have a sustained effect | substantially constant action | – |
| 21.7 ± 10.6 | 2 | 61.3 ± 19.1 | 103.5 | CCCN(CCN1CCN(c2cccc(Cl)c2Cl)CC1)C1CCc2ncsc2C1 (centres unmarked) [Compound 35, {2-[4-(2,3 -Dichloro-phenyl)-piperazin-1-yl]-ethyl}-propyl-(4,5,6,7-tetrahydro-benzothiazol-6-yl)-amine] | – | – | – | – | – |
| 12.9 ± 3.8 | 247 | 3180 ± 1730 | – | CCCN(CCN1CCN(C(=O)c2cccc3ccccc23)CC1)C1CCc2ncsc2C1 (centres unmarked) [Compound 39, [2-(4-Naphthoyl-piperazin-1-yl)-ethyl]-propyl-(4,5,6,7-tetrahydro-benzothiazol-6-yl)-amine] | fast acting | short acting | – | – | – |
| 631 ± 388 | 26 | 16700 ± 3380 | 85 | CCCN(Cc1ccc(C(=O)N(CCC)C2CCc3ncsc3C2)cc1)C1CCc2ncsc2C1 (centres unmarked) [Compound 42, N-Propyl-4-{[propyl-(4,5,6,7-tetrahydrobenzothiazol-6-yl)amino]methyl}-N-(4,5,6,7-tetrahydrobenzothiazol-6-yl)benzamide] | – | – | – | – | – |
| 29.4 ± 7.5 | 49 | 1440 ± 273 | 70 | CCCN(Cc1ccc(C(=O)N2CCN(c3ccccc3)CC2)cc1)C1CCc2ncsc2C1 (centres unmarked) [Compound 43, (4-Phenylpiperazin-1-yl)-(4-{[propyl-(4,5,6,7-tetrahydrobenzothiazol-6-yl)amino]methyl}phenyl)methanone] | – | – | – | – | – |
| 836 ± 211 | 19 | 16100 ± 8850 | 65 | CCCN(Cc1ccc(C(=O)NC2Cc3ccccc3C2)cc1)C1CCc2ncsc2C1 (centres unmarked) [Compound 44, N-Indan-2-yl-4-{[propyl-(4,5,6,7-tetrahydrobenzothiazol-6-yl)amino]methyl}benzamide] | – | – | – | – | – |
| 0.9 ± 0.05 | 1550 | 1390 ± 304 | – | CCCN(CCCCC(=O)NC1Cc2ccccc2C1)C1CCc2ncsc2C1 (centres unmarked) [Compound 67, N-(2,3-dihydro-1H-inden-2-yl)-5-(propyl-(4,5,6,7-tetrahydrobenzothiazol-6-yl)amino)pentanamide] | – | short acting | – | – | – |
| 1.54 ± 0.46 | 297 | 457 ± 228 | – | CCCN(CCCCC(=O)NC12CC3CC(CC(C3)C1)C2)C1CCc2ncsc2C1 (centres unmarked) [Compound 68, N-Adamantanyl-5-(propyl-(4,5,6,7-tetrahydrobenzothiazol-6-yl)amino)pentanamide] | – | – | sustained activity over a number of hours | – | – |
| – | – | – | – | CCCN[C@H]1CCc2nc(N)sc2C1 [pramipexole, (S)-2-amino-4,5,6,7-tetra-hydro-6-(propylamino)benzothiazole dihydrochloride mono-hydrate] | – | – | – | – | 1-10% |
